Results: US9327060B2 (CARDINAL HEALTH SWITZERLAND 515 GmbH, priority 2009, dated 2016)

What was measured:
[1] = Excerpt: Referring to FIG. 29, there is illustrated the cumulative in vivo drug release percentages from a reservoir eluting stent for each drug over a thirty day period. Curve 2902 represents the profile for cilostazol while curve 2904 represents the profile for sirolimus. FIG. 30 is a graphical representation of the amount of each drug, in micrograms, released in vivo. Curve 3002 represents the profile for cilostazol while curve 3004 represents the profile for sirolimus. The curves in the figures illustrate that both the drugs elute independently of each other with minimal or substantially no interaction. […] Since the amount of drug (by weight) is different for the drugs in their respective reservoirs, the total amount of drug released at thirty (30) days was higher for sirolimus as compared to cilostazol.
[2] = test system: platelet deposition and thrombus formation on the stent surface; assay: in vitro bovine blood loop model; conditions: sirolimus/cilostazol combination coatings, FIG. 8
Excerpt: The anti-thrombotic efficacy of the above-described three configurations is illustrated in FIG. 8. FIG. 8 illustrates the anti-thrombotic properties of the sirolimus/cilostazol combination coatings described above in an in vitro bovine blood loop model. In the in vitro bovine blood loop model, fresh bovine blood is heparinized to adjust for […] (ACT) of about two hundred (200) seconds. The platelet content in the blood is labeled through the use of Indium 111. In the study, a stent is deployed in a silicone tube, which is part of a closed loop system for blood circulation. The heparinzed blood is circulated through the closed loop system by means of a circulating pump. Blood clots and thrombus builds up on a stent surface over time and reduces the flow rate of blood through the stented loop. The flow is stopped when the flow rate is reduced to fifty (50) percent of the starting value or at ninety (90) minutes if none of the tested stent reduces the flow by fifty (50) percent. The total radioactivity (In 111) on the stent surface is counted by a […] and normalized with the control unit, set as one hundred (100) percent in the chart. […]

[3] = porcine drug elution PK study of the dual drug eluting coating; assay type: in vivo; conditions: after eight (8) days of implantation; stent of FIG. 11 (sirolimus and cilostazol in one EVA/BMA layer, 100 μg BMA overcoat)
Excerpt: Another critical parameter for the performance of the thrombus resistance of a device coated with cilostazol is the duration of the drug release from the coating. This is of particular significance in the two weeks after device implantation. In the porcine drug elution PK studies of the dual drug eluting coating, both cilostazol and sirolimus were slowly released from the coating, resulting in a sustained drug release profile. The purpose of the porcine PK study is to assess the local pharmacokinetics of a drug eluting stent at a given implantation time. Normally three stents are implanted in three different coronary arteries in a pig for a given time point and then retrieved for total drug recovery analysis. The stents are retrieved at predetermined time points; namely, 1, 3 and 8 days. The stents are extracted and the total amount of drug remaining on the stents is determined by analysis utilizing HPLC (high performance liquid chromatography) for total drug amount. The difference between the original amount of drug on the stent and the amount of drug retrieved at a given time represents the amount of drug released in that period. The continuous release of drug into surrounding arterial tissue is what prevents the neointimal growth and restenosis in the coronary artery. A normal plot represents the percentage of total drug released (%, y-axis) vs. time of implantation (day, x-axis). […]

[4] = in vitro release kinetics of sirolimus and cilostazol from coated stent; assay type: physicochemical; conditions: stent of FIG. 11 (sirolimus and cilostazol in one EVA/BMA layer, 100 μg BMA overcoat); FIG. 10

Compound | cumulative in vivo elution [1] | thrombus formation [2] | drug remained in the drug coating [3] [%] | in vitro release [4] [%]
O=C1CCc2cc(OCCCCc3nnnn3C3CCCCC3)ccc2N1 [cilostazol, 6[4-(1-cyclohexyl-1H-tetrazol-5-yl)-butoxy]-3,4-dihydro-2-(1H)-quinolinone] | sixty (60) to seventy (70) | significantly reduces thrombus formation | ~80 | ~35
CO[C@H]1C[C@@H]2CC[C@@H](C)[C@@](O)(O2)C(=O)C(=O)N2CCCC[C@H]2C(=O)O[C@H]([C@H](C)C[C@@H]2CC[C@@H](O)[C@H](OC)C2)CC(=O)[C@H](C)/C=C(\C)[C@@H](O)[C@@H](OC)C(=O)[C@H](C)C[C@H](C)/C=C/C=C/C=C/1C [Rapamycin] | sixty (60) to seventy (70) | – | ~80 | –
